In US5356911A, “Substituted biphenylpyridones” (Bayer Aktiengesellschaft, priority 1991, dated 1994):
Counter-ions that a name gives are not always drawn.

Tested on: contraction of the isolated rabbit aorta induced by angiotensin II
Assay: Inhibition of the angiotensin II-induced vascular contraction of isolated rabbit aorta rings in vitro
Type: cell-based
Conditions: Oryctolagus cuniculus; isolated aorta rings of rabbits in vitro; based on 3rd = sub-maximal agonist concentration; read-out: IC50 for contractions induced by AII
Procedure: Investigation of the Inhibition of the Contraction Induced by Agonists
Rabbits of both sexes are stunned by a blow to the neck and bled out, or in some cases anaesthetised with Nembutal (about 60-80 mg/kg i.v.) and sacrificed by opening the thorax. The thorax aorta is removed, freed of adhering connective tissue, divided into 1.5 mm wide ring segments and individually transferred under an initial loading of about 3.5 g to 10 ml organ baths containing 95% O2, 5% CO2 -aerated Krebs-Henseleit nutrient solution adjusted to 37° C. and of the following composition: 119 mmol/l of NaCl; 2.5 mmol/l of CaCl2 ×2H2 O; 1.2 mmol/l of KH2 PO4; 10 mmol/l of glucose; 4.8 mmol/l of KCl; 1.4 mmol/l of MgSO4 ×7 H2 O and 25 mmol/l of NaHCO3.
The contractions are detected isometrically by Statham UC2 cells by means of bridge amplifiers (ifd Mulheim or DSM Aalen) and digitalised and analysed by means of an A/D converter (System 570, Keithley Munich). The agonist dose-response curves (DRC) are carried out hourly. With each DRC, 3 or 4 individual concentrations are applied to the baths at 4 min intervals. After the end of the DRC and subsequent washing-out cycles (16 times, in each case about 5 sec/min with the abovementioned nutrient solution), a 28-minute resting or incubation phase follows, in the course of which the contractions as a rule reach the starting value again.
The height of the 3rd DRC, in the normal case, is used as a reference quantity for the assessment of the test substance to be investigated in other passages, which is applied to the baths in the following DRCs in increasing dosage in each case at the start of the incubation time. Each aorta ring is in this way stimulated for the whole day, always with the same agonist.
For the calculation of the IC50 (concentration at which the substance to be investigated causes a 50% inhibition), the effect is in each case based on the 3rd=sub-maximal agonist concentration.
rings of rabbits in vitro
IC50 (g/ml) for contractions induced by: AII

**Q.** With `CCCc1cc(C(=O)OC)cc(=O)n1Cc1ccc(-c2ccccc2-c2nnn[nH]2)cc1` [LXXVIII] as the compound, how does the IC50 read?
**A.** 0.034 µM

**Q.** For `CCCCc1cc(C(N)=O)cc(=O)n1Cc1ccc(-c2ccccc2-c2nnn[nH]2)cc1` [XLV], which IC50 is on record?
**A.** 0.0037 µM

**Q.** How did the IC50 turn out when `CCCCc1cccc(=O)n1Cc1ccc(-c2ccccc2-c2nnn[nH]2)cc1` [XXXIII] was run?
**A.** 0.0073 µM

**Q.** Which IC50 does the source give for `CCCCc1cc(C(=O)OCc2ccccc2)cc(=O)n1Cc1ccc(-c2ccccc2-c2nnn[nH]2)cc1` [XLIII] here?
**A.** 0.039 µM

**Q.** With `CCCCc1cc(C(=O)O)cc(=O)n1Cc1ccc(-c2ccccc2-c2nnn[nH]2)cc1` [Example XCII, 6-Butyl-4-carboxy-2-oxo-1[(2'-tetrazol-5-yl-biphenyl-4-yl)methyl-1,2-dihydropyridinedisodium salt] as the compound, how does the IC50 read?
**A.** 0.12 µM

**Q.** With `CCCCc1cc(CO)cc(=O)n1Cc1ccc(-c2ccccc2-c2nnn[nH]2)cc1` [LIV] as the compound, how does the IC50 read?
**A.** 0.013 µM

Tested on: Angiotensin II-Infused Rat
Assay: Blood pressure measurements on the angiotensin II-infused rat
Type: in vivo, Male Wistar rats
Conditions: 0.3 mg/kg p.o.; angiotensin II infusion 0.3 μg/kg/min; anaesthetised rats
Procedure: Blood Pressure Measurements on the Angiotensin II-Infused Rat
Male Wistar rats (Moellegaard, Copenhagen, Denmark) having a body weight of 300-350 g are anaesthetised with thiopental (100 mg/kg i.p.). After tracheotomy, one catheter is inserted in the femoral artery for blood pressure measurement and one catheter is inserted in the femoral veins for angiotensin II infusion and one catheter for substance administration. After administration of the ganglionic blocker pentolinium (5 mg/kg i.v.), angiotensin II infusion (0.3 μg/kg/min) is started. As soon as the blood pressure values have reached a stable plateau, the test substances are administered either intravenously or orally as a suspension or solution in 0.5% tylose.

**Q.** Which Blood pressure decrease does the source give for “6-Butyl-4-methoxycarbonyl-2-oxo-1-{[2'-(N-triphenylmethyl-tetrazol-5-yl)biphenyl-4-yl]methyl}-1,2-dihydropyridine [Example I]” here?
**A.** > 50 mm Hg

Biological target: T1, Angiotensin II receptor (Bos taurus, UniProt P25104)
T1 construct: Adrenal cortices of cattle (ACC), which have been freshly removed and carefully freed of gland medulla; from tissue; host or cells: bovine adrenal cortex, partially purified membrane fractions
T1 sequence (P25104 1-359): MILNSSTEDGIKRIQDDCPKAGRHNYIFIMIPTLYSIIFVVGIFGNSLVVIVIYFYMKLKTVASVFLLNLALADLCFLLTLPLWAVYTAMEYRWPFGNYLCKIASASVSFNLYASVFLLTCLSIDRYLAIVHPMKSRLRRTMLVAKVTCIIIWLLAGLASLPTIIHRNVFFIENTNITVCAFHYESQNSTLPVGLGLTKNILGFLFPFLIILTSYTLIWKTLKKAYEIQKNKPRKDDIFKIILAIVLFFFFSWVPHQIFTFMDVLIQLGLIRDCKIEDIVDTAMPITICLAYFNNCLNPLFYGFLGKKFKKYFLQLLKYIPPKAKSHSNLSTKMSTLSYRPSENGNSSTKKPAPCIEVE
Assay: Inhibition of specific binding of 3H-angiotensin II to the angiotensin II receptor on membrane fractions of the adrenal cortex
Set-up: species or system cattle (bovine)
Conditions: 3H-angiotensin II (3-5 nM), bovine adrenal cortex membranes, 60 min, room temperature
Source text: Interaction of the Compounds According to the Invention With the Angiotensin II Receptor on Membrane Fractions of the Adrenal Cortex (Cattle)
Adrenal cortices of cattle (ACC), which have been freshly removed and carefully freed of gland medulla, are comminuted in sucrose solution (0.32M) with the aid of an Ultra-Turrax (Janke & Kunkel, Staufen i.B.) to give a coarse membrane homogenate and partially purified in two centrifugation steps to give membrane fractions. The investigations of receptor binding were carried out on partially purified membrane fractions of bovine ACC using radioactive angiotensin II in an assay volume of 0.25 ml, which in detail contains the partially purified membranes (50-80 μg), ^3 H-angiotensin II (3-5 nM), test buffer solution (50 mM tris, pH 7.2, 5 mM MgCl2 and the substances to be investigated. After an incubation time of 60 min at room temperature, the unbound radioactivity of the samples is separated by means of moistened glass fibre filters (Whatman GF/C) and the bound radioactivity is measured spectrophotometrically in a scintillation cocktail after washing the protein with ice-cold buffer solution (50 mM tris/HCl, pH 7.4, 5% PEG 6000). The analysis of the raw data was carried out using computer programs to give Ki and IC50 values (Ki: IC50 values corrected for the radioactivity used; IC50 values: concentration at which the substance to be investigated causes a 50% inhibition of the specific binding of the radioligand).

**Q.** How did the Ki turn out when `CCCc1cc(C(N)=O)cc(=O)n1Cc1ccc(-c2ccccc2-c2nnn[nH]2)cc1` [Example LVI] was run?
**A.** 0.009 µM

**Q.** For `N#Cc1c(C(=O)O)cc(C2CC2)n(Cc2ccc(-c3ccccc3-c3nnn[nH]3)cc2)c1=O` [XCIV], which Ki is on record?
**A.** 0.042 µM

**Q.** How did the Ki turn out when `CCc1cc(CC)n(Cc2ccc(-c3ccccc3-c3nnn[nH]3)cc2)c(=O)c1C#N` [XXXIV] was run?
**A.** > 10 µM

**Q.** With `CCCCc1cc(COC)cc(=O)n1Cc1ccc(-c2ccccc2-c2nnn[nH]2)cc1` [Example LV] as the compound, how does the Ki read?
**A.** 0.015 µM

**Q.** `CCCCc1cc(C(=O)OCC)c(C#N)c(=O)n1Cc1ccc(-c2ccccc2-c2nnn[nH]2)cc1` [XLVII] was tested. Which Ki did it give?
**A.** 0.22 µM

**Q.** `CCCCc1cc(COC)cc(=O)n1Cc1ccc(-c2ccccc2-c2nnn[nH]2)cc1` [LXXXII] was tested. Which Ki did it give?
**A.** 0.079 µM
